Tests used:
[1] = tested on: sumoylation levels (SUMO 2/3 conjugates) in HCT-116 cells; assay: HCT-116 4 Hour Cell Assay (Western, SUMO 2/3 conjugates); format: cell-based; conditions: Homo sapiens, HCT-116, 4 h, 4 h treatment, Anti-Sumo 2-3 immunoblot, read-out: HCT-116 Western 4 h IC50 (μM) Ave
Experimental: This protocol describes the procedures used to assess the effects of compounds of interest on sumoylation levels. Immunoblot of SUMO 2/3 conjugates are performed and IC50 curves are generated upon quantification of sumoylations bands. HCT-116 cells are seeded in a 12 well plate (500,000 cells/well). The following day the cells are treated with compounds of interest (resuspended in DMSO) for 4 hours (11 concentrations with a three-fold dilution; starting concentration 25 μM) Following 4 hours of incubation the cells are washed with ice cold PBS 1×and protein extraction is performed with RIPA buffer supplemented with phosphatases and proteases inhibitors, 25 mM of NEM and 50 units/mL of Benzonase. Samples undergo centrifugation at 13,000 RPM, 4° C., for 10 minutes and the supernatant is collected. Protein quantification is performed using BCA. Non-Reducing Laemmli Buffer is added to the samples. Samples are heated at 75° C. for 10 minutes, and are centrifuged for 3 minutes at 9000 RPM Nupage 4-12% Bis Tris gels and 1× MOPS buffer (Fisher Scientific)+1× NuPAGE Antioxidant (Invitrogen) are used to perform the SDS-PAGE gel electrophoresis (20 to 40 μg of proteins are loaded in the gels). Proteins are then transferred to PVDF membranes and the level of total proteins are measured by staining with Revert Total Protein Stain and the fluorescent bands are acquired using the LI-COR FC (700 nm for 1 min) Membranes are blocked for 5 minutes with Bio-Rad Blocking Buffer and are subsequently incubated over night at 4° C. with Anti-Sumo 2-3 mAb (M BL #M114-3, 1:1000 in Bio-Rad Blocking Buffer, 0.2% Tween 20) Membranes are washed with 1×TBS-T (3 times for 5 minutes) and sumoylation is detected using Li-cor IRDye 800CW Goat anti-Mouse IgG secondary antibody (1:10,000 dilution) upon 1 hour of incubation in blocking buffer with 0.2% Tween 20 and 0.01% SDS. After the incubation, the membranes are washed with 1×TBS-T (3 times for 5 minutes). To visualize the fluorescent bands the membranes are scanned with LI-COR FC (700 nm for 1 min and […] for 2 mins). Sumoylation levels are quantified upon normalization with total protein levels, using the LI-COR Image Studio Lite 5.2 Software.

[2] = target: SAE1 (Homo sapiens (Human), UniProt Q9UBE0+Q9UBT2); assay: SAE High Throughput Biochemical Assay (HTRF), 15 min preincubation; conditions: read-out: 15 min preincubation HTRF IC50 (μM) Ave, SAE1 12.5 nM, ATP 100 μM
Procedure, shortened: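 HTRF detection of SUMO transfer from SUMO-GST to UBC9-His (40 nM each) by SAE1 at 12.5 nM used 100 μM ATP in pH 7.5 HEPES buffer with 10 mM MgCl2 and 0.1% BSA. Enzyme and compound were preincubated 15 min at RT and the reaction ran 45 min, with readings after 2 h and overnight.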

Sequence of SAE1 (Q9UBE0 whole entry): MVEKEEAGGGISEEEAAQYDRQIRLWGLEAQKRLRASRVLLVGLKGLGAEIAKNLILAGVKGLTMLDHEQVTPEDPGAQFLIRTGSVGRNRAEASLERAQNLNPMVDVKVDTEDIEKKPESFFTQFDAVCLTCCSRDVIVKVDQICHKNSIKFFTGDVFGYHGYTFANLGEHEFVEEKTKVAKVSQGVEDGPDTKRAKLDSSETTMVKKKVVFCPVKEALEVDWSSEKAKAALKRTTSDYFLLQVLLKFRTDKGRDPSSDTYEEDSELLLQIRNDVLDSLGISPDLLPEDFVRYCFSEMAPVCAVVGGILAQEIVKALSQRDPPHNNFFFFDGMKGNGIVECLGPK
Sequence of SAE1 (Q9UBT2 whole entry): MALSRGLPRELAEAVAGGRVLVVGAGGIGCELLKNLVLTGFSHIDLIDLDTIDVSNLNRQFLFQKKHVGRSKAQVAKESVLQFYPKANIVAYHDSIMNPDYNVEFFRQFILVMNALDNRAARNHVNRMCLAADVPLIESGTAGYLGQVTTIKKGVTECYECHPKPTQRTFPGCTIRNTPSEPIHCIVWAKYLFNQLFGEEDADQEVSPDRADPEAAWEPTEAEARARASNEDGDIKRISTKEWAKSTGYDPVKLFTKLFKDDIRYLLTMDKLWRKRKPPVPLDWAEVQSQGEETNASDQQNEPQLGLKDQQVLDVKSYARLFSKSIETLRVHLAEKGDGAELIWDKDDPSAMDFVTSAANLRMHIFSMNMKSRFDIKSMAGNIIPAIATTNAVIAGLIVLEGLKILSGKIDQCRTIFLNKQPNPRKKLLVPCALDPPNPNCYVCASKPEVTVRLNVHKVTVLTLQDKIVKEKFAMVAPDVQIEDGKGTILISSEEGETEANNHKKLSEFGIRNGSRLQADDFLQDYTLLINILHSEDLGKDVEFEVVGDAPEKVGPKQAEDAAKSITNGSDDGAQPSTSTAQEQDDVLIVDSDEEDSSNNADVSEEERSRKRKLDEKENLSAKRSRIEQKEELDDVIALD

IC50 [1] [µM] | Structure (SMILES) | IC50 [2] [µM]
0.145 | CCn1cc(-c2c(F)cccc2[C@@H]2CN(C(=O)/C=C/C3CC[C@@H](C)N3)Cc3sc(C#N)cc32)c(C(F)(F)F)n1 (stereo in doubt) [Example 93, (S)-4-(2-(1-ethyl-3-(trifluoromethyl)-1H pyrazol-4-yl)-3-fluorophenyl)-6-((E)-3-((2S,5R)-5-methylpyrrolidin-2-yl)acryloyl)-4,5,6,7-tetrahydrothieno[2,3-c]pyridine-2-carbonitrile] | 0.76
0.0573 | Cc1c(C#N)sc2c1[C@H](c1cccc(F)c1-c1cn(C)nc1C(F)(F)F)CN(C(=O)/C=C/CN(C)C)C2 [Compound 220] | 0.067
0.134 | Cc1c(C#N)sc2c1[C@H](c1cccc(F)c1-c1c[nH]nc1C(F)(F)F)CN(C(=O)/C=C/CN(C)C)C2 [Compound 221] | 0.347
0.106 | CCn1cc(-c2c(F)cccc2[C@@H]2CN(C(=O)/C=C/CN)Cc3sc(C#N)c(C)c32)c(C(F)(F)F)n1 [Compound 224] | 0.172
5.39 | C=CC(=O)N1Cc2sc(C#N)cc2C(c2ccc(NC(C)=O)cc2-c2cn(CC)nc2C(F)(F)F)C1 (centres unmarked) [Compound 230] | 1.1
1 | C=CC(=O)N1Cc2sc(C#N)c(C)c2C(c2ccccc2-c2cn(CC)nc2C(F)(F)F)C1 (centres unmarked) [Compound 231] | 0.16
0.402 | CCn1cc(-c2ccccc2C2CN(C(=O)/C=C/CN(C)C)Cc3sc(C#N)c(C)c32)c(C(F)(F)F)n1 (centres unmarked) [Compound 232] | 1.36
0.914 | CCn1cc(-c2ccccc2[C@H]2c3cc(C#N)sc3CN(C(=O)/C=C/CN(C)C)[C@@H]2C)c(C(F)(F)F)n1 [Compound 233] | 4.82
0.339 | CCn1cc(-c2c(F)cccc2C2CN(C(=O)/C=C/CN(C)C)Cc3sc(C#N)cc32)c(C(F)(F)F)n1 (centres unmarked) [Compound 234] | 2.23
0.356 | C=CC(=O)N1Cc2sc(C#N)cc2C(c2cccc(F)c2-c2cn(CC)nc2C(F)(F)F)C1 (centres unmarked) [Compound 236] | 0.24
0.897 | CCn1cc(C2=C([C@@H]3CN(C(=O)/C=C/CN(C)C)Cc4sc(C#N)cc43)CCCC2)c(C(F)(F)F)n1 [Compound 237] | 2.64
0.844 | CCn1cc(-c2c(F)cc(F)cc2[C@@H]2CN(C(=O)/C=C/CN(C)C)Cc3sc(C#N)cc32)c(C(F)(F)F)n1 [Compound 238] | 1.79
0.187 | CCn1cc(-c2ccccc2[C@@H]2CN(C(=O)/C=C/CN(C)C)Cc3sc(C#N)c(C)c32)c(C(F)(F)F)n1 [Compound 239] | 1.12
0.187 | CCn1cc(-c2c([C@@H]3CN(C(=O)/C=C/CN(C)C)Cc4sc(C#N)cc43)ccc(O)c2F)c(C(F)(F)F)n1 [Compound 240] | 0.81
0.445 | CCn1cc(-c2c(C(F)F)cccc2C2CN(C(=O)/C=C/CN(C)C)Cc3sc(C#N)cc32)c(C(F)(F)F)n1 (centres unmarked) [Compound 241] | 5.52
1.29 | CCn1cc(-c2c(C)cccc2[C@@H]2CN(C(=O)/C=C/CN(C)C)Cc3sc(C#N)cc32)c(C(F)(F)F)n1 [Compound 242] | 2.32
0.502 | CCn1cc(-c2c(Cl)cccc2[C@@H]2CN(C(=O)/C=C/CN(C)C)Cc3sc(C#N)cc32)c(C(F)(F)F)n1 [Compound 243] | 1.17
0.12 | CCn1cc(-c2ccccc2[C@@H]2CN(C(=O)/C=C/C(F)F)Cc3sc(C#N)cc32)c(C(F)(F)F)n1 [Example 21, (S, E)-6-(4,4-difluorobut-2-enoyl)-4-(2-(1-ethyl-3-(trifluoromethyl)-1H-pyrazol-4-yl)phenyl)-4,5,6,7-tetrahydrothieno[2,3-c]pyridine-2-carbonitrile] | 
 | CCn1cc(-c2cccc(O)c2C2CN(C(=O)/C=C/CN(C)C)Cc3sc(C#N)cc32)c(C(F)(F)F)n1 (centres unmarked) [Example 204, (E)-6-(4-(Dimethylamino)but-2-enoyl)-4-(2-(1-ethyl-3-(trifluoromethyl)-1 H-pyrazol-4-yl)-6-hydroxyphenyl)-4,5,6,7-tetrahydrothieno[2,3-c]pyridine-2-carbonitrile] | > 25
 | CCn1cc(-c2ccc(O)cc2C2CN(C(=O)/C=C/CN(C)C)Cc3sc(C#N)cc32)c(C(F)(F)F)n1 (centres unmarked) [Example 205, (E)-6-(4-(Dimethylamino)but-2-enoyl)-4-(2-(1-ethyl-3-(trifluoromethyl)-1 H-pyrazol-4-yl)-5-hydroxyphenyl)-4,5,6,7-tetrahydrothieno[2,3-c]pyridine-2-carbonitrile] | > 25
 | CCn1cc(-c2sccc2C2CN(C(=O)/C=C/CN(C)C)Cc3sc(C#N)cc32)c(C(F)(F)F)n1 (centres unmarked) [Example 207, (E)-6-(4-(Dimethylamino)but-2-enoyl)-4-(2-(1-ethyl-3-(trifluoromethyl)-1H pyrazol-4-yl)thiophen-3-yl)-4,5,6,7-tetrahydrothieno[2,3-c]pyridine-2-carbonitrile] | > 25
 | CCn1cc(-c2cc(C)ccc2C2CN(C(=O)/C=C/CN(C)C)Cc3sc(C#N)cc32)c(C(F)(F)F)n1 (centres unmarked) [Example 210, (E)-6-(4-(Dimethylamino)but-2-enoyl)-4-(2-(1-ethyl-3-(trifluoromethyl)-1 H pyrazol-4-yl)-4-methylphenyl)-4,5,6,7-tetrahydrothieno[2,3-c]pyridine-2-carbonitrile] | 19.7
 | CCn1cc(-c2cc(F)ccc2C2CN(C(=O)/C=C/CN(C)C)Cc3sc(C#N)cc32)c(C(F)(F)F)n1 (centres unmarked) [Example 211, (E)-6-(4-(Dimethylamino)but-2-enoyl)-4-(2-(1-ethyl-3-(trifluoromethyl)-1 H-pyrazol-4 yl)-4-fluorophenyl)-4,5,6,7-tetrahydrothieno[2,3-c]pyridine-2-carbonitrile] | 20.2
 | CCn1cc(-c2cc(Cl)ccc2C2CN(C(=O)/C=C/CN(C)C)Cc3sc(C#N)cc32)c(C(F)(F)F)n1 (centres unmarked) [Example 212, (E)-4-(4-Chloro-2-(1-ethyl-3-(trifluoromethyl)-1 H-pyrazol-4-yl)phenyl)-6-(4-(dimethylamino)but-2-enoyl)-4,5,6,7-tetrahydrothieno[2,3-c]pyridine-2-carbonitrile] | 11.7
 | CCn1cc(-c2ccccc2C2CN(C(=O)/C=C/CN(C)C)Cc3sc(C#N)c(F)c32)c(C(F)(F)F)n1 (centres unmarked) [Example 213, (E)-6-(4-(dimethylamino)but-2-enoyl)-4-(2-(1-ethyl-3-(trifluoromethyl)-1 H pyrazol-4-yl)phenyl)-3-fluoro-4,5,6,7-tetrahydrothieno[2,3-c]pyridine-2-carbonitrile] | 8.81
 | CCn1cc(-c2c(F)cccc2[C@@H]2CN(C(=O)/C=C/[C@@H](C)NC)Cc3sc(C#N)c(C)c32)c(C(F)(F)F)n1 [Example 218, (S)-4-(2-(1-ethyl-3-(trifluoromethyl)-1 H-pyrazol-4-yl)-3-fluorophenyl)-3-methyl-6-((R, E)-4-(methylamino)pent-2-enoyl)-4,5,6,7-tetrahydrothieno[2,3-c]pyridine-2-carbonitrile] | 0.81
 | CN[C@@H](C)/C=C/C(=O)N1Cc2sc(C#N)c(C)c2[C@H](c2cccc(F)c2-c2cn(C)nc2C(F)(F)F)C1 [Example 219, (S)-4-(3-fluoro-2-(1-methyl-3-(trifluoromethyl)-1 H-pyrazol-4-yl)phenyl)-3-methyl-6-((S, E)-4-(methylamino)pent-2-enoyl)-4,5,6,7-tetrahydrothieno[2,3-c]pyridine-2-carbonitrile] | 1.01

— patent US20240360148A1 (SUVALENT THERAPEUTICS, INC., priority 2021, published 2024)
